Measured values reported in ChEMBL document CHEMBL1155121, “4-Hydroxy-5-pyrrolinone-3-carboxamide HIV-1 integrase inhibitors” (Bioorg Med Chem Lett, 2008).
Activity calls are given as the source filed them. The calls are words filed in the database; no cut-off is given here.

How the values were obtained:
[1] = target: Human immunodeficiency virus type 1 integrase (Human immunodeficiency virus 1, UniProt Q7ZJM1); assay: Inhibition of recombinant HIV1 integrase strand transfer activity
[2] = tested on: Human immunodeficiency virus 1; assay: Antiviral activity against HIV1 in human MT4 cells at 25 uM; assay type: functional
MT4 = assay: Cytotoxicity against human MT4 cells up to 20 uM; assay type: cell-based
Plasma = assay: Fraction unbound in human plasma; assay type: ADME, cell-free

Sequence of Human immunodeficiency virus type 1 integrase (Q7ZJM1 whole entry): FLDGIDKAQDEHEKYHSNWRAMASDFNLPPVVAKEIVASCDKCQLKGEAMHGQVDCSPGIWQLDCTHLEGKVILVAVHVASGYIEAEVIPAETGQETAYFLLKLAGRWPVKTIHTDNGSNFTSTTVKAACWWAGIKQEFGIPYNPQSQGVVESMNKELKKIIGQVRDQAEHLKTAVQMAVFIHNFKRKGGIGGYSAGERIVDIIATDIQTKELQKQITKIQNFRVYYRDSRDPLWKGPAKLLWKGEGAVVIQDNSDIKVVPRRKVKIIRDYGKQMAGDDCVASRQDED

Q: With `O=C(NCc1ccc(F)cc1)C1=C(O)C(=O)N2CCCCC12` (stereo not drawn) as the molecule, how does the IC50 [1] read?
A: 18 nM

Q: What about the Activity [2] of the same molecule?
A: 35%

Q: And the Activity (MT4)?
A: Not Active

Q: For `O=C(NCc1ccc(F)cc1)C1=C(O)C(=O)N(Cc2ccccc2)C1`, which IC50 [1] is on record?
A: 100 nM

Q: And the Activity [2]?
A: inactive

Q: What about the Activity (MT4) of the same molecule?
A: Not Active

Q: What does the source list for `CN1C(=O)C(O)=C(C(=O)NCc2ccc(F)cc2)C1c1ccccc1` (stereo not drawn)?
A: IC50 [1]: > 1000 nM; Activity [2]: inactive; Activity (MT4): Not Active

Q: Which IC50 [1] does the source give for `O=C(NCc1ccc(F)cc1)C1=C(O)C(=O)N(CCN2CCCCC2)C1` here?
A: > 1000 nM

Q: And the Activity [2]?
A: inactive

Q: And the Activity (MT4)?
A: Not Active

Q: Which Fu (Plasma) does the source give for `O=C(NCc1ccc(F)cc1)C1=C(O)C(=O)N(Cc2ccccn2)C1` here?
A: < 1%

Q: And the IC50 [1]?
A: 94 nM

Q: What about the Activity [2] of the same molecule?
A: inactive

Q: What about the Activity (MT4) of the same molecule?
A: Not Active

Q: Which IC50 [1] does the source give for `COc1ccccc1CCN1CC(C(=O)NCc2ccc(F)cc2)=C(O)C1=O` here?
A: 4 nM

Q: What about the Activity [2] of the same molecule?
A: inactive

Q: And the Activity (MT4)?
A: Not Active

Q: How did the IC50 [1] turn out when `O=C(NCc1ccc(F)cc1)C1=C(O)C(=O)N(CCN2CCOCC2)C1C(=O)NCc1ccc(F)cc1` (stereo not drawn) was run?
A: > 1000 nM

Q: And the Activity [2]?
A: inactive

Q: What about the Activity (MT4) of the same molecule?
A: Not Active

Q: Which IC50 [1] does the source give for `Cc1cccc(CN2CC(C(=O)NCc3ccc(F)cc3)=C(O)C2=O)c1` here?
A: 6 nM

Q: And the Activity [2]?
A: inactive

Q: And the Activity (MT4)?
A: Not Active

Q: Which IC50 [1] does the source give for `O=C(NCc1ccc(F)cc1)C1=C(O)C(=O)N(CCCc2ccccc2)C1` here?
A: 5 nM

Q: What about the Activity [2] of the same molecule?
A: inactive

Q: What about the Activity (MT4) of the same molecule?
A: Not Active
